Source: US6403343B2, “Method of producing a taxane-type diterpene and a method of obtaining cultured cells which produce the taxane-type dilterpene at a high rate” (Mitsui Chemicals, Inc., priority 1993, dated 2002)

Columns and labels:
Format in all cases: cell-based
[1] = test system: cultured cells of Taxus baccata LINN; assay: Taxane-type diterpene yield and cell yield, shake culture of Taxus baccata cells with a jasmonic acid (or jasmone) added; settings: for taxol inducing activity: see Comparative Example No. 24
[2] = test system: cultured cells of Taxus baccata LINN; assay: Two-stage culture: first stage with potassium peroxodisulfate, second stage with methyl jasmonate; cell yield and taxol yield; settings: for yield of cells, second stage of the culture / yield of taxol, second stage of the culture: second stage with methyl jasmonate 100 μM on the 14th day; for content of taxol, first stage of the culture / yield of cells, first stage of the culture: added 1st day
Experimental: After completing the culture, the cultured cells were harvested by filtration and a part of the cells were used as seed cells for the second stage of the culture and the rest of the cells were subjected to the measurement of the cell yield and the taxane content in the cells. Accordingly, 1 g (fresh weight) of the cultured cells were inoculated to an Erlenmeyer flask containing 20 ml of liquid Woody Plant Medium to which naphthalenacetic acid had been added to give the concentration of 10^−5M and shake culture was carried out at 25° C. for 14 days. On the 14th day of the culture, methyl jasmonate was added to the medium to give the concentration in the medium of 100 μM and the culture was further continued for another 7 days. On the other hand, the rest of the cells obtained in the first stage of the culture were lyophilized, then the dry weight was measured to obtain the cell yield thereof per liter of the liquid medium. The content of taxol in the dried cells was measured by high performance liquid chromatography. The yield of the cells and the yield of taxol were measured for the cells obtained by second stage of the culture in the same manner as that for the cells obtained in the first stage of the culture.

[3] = test system: cultured cells of Taxus baccata LINN; assay: Growth rate and taxane yield, 21-day shake culture of Taxus baccata cells with heavy metal compound, amine, antiethylene agent or Ethrel added
Experimental: (§1) One gram (fresh weight) of the callus was inoculated to an Erlenmeyer flask containing 20 ml of liquid Woody Plant Medium to which the above-mentioned component was added to give the same concentration and shake culture was carried out with a rotary shaker (amplification of 25 mm, 100 rpm) and the callus was subcultured in every 21 days to accelerate the growth rate thereof.
Then shake culture was carried out at 25° C. for 21 days.
(§2) After completing the culture, cultured cells of Taxus baccata LINN were harvested by filtration and lyophilized, then the dry weight was measured to obtain the growth rate thereof. Taxane-type diterpenes were extracted from the dried callus with methanol and the like, and they were determined by comparing with standard taxol, cephalomannine, and baccatin III using high performance liquid chromatography to measure the yields of the taxane-type diterpenes.
as §1
One gram (fresh weight) of the cultured cells thus obtained was inoculated to an Erlenmeyer flask containing 20 ml of liquid Woody Plant Medium to which the above-mentioned component had been added to give the same concentration, then spermidine was added to it as amine to give the final concentration of 10^−9M-1M. Then shake culture was carried out at 25° C. for 21 days.
as §2, with “cells” for “callus”, “diterpene.” for “diterpenes.”
as §1, with “component had been” for “component was”
One gram (fresh weight) of the cultured cells thus obtained was inoculated to an Erlenmeyer flask containing 20 ml of liquid Woody Plant Medium to which the above-mentioned component had been added to give the same concentration, and shake culture was carried out at 25° C. for 14 days.

[4] = first stage with potassium peroxodisulfate 5 × 10^−3M
[5] = first stage with potassium peroxodisulfate 5 × 10^−4M
[6] = first stage with potassium peroxodisulfate 10^−3M
[7] = first stage with potassium peroxodisulfate 10^−4M
[8] = first stage with potassium peroxodisulfate 10^−5M
[9] = potassium peroxodisulfate 5 × 10^−3M in the medium
[10] = potassium peroxodisulfate 5 × 10^−4M in the medium
[11] = potassium peroxodisulfate 10^−3M in the medium
[12] = potassium peroxodisulfate 10^−4M in the medium
[13] = potassium peroxodisulfate 10^−5M in the medium
[14] = 10^−3 M added at start, 21 days
[15] = 10^−3 M added on 14th day, 7 more days
[16] = 0.01 μM added on 14th day, 7 more days
[17] = 0.1 μM added on 14th day, 7 more days
[18] = 1 μM added on 14th day, 7 more days
[19] = 10 μM added on 14th day, 7 more days
[20] = 50 μM added on 14th day, 7 more days
[21] = 100 μM added on 14th day, 7 more days
[22] = 250 μM added on 14th day, 7 more days
[23] = 500 μM added on 14th day, 7 more days
[24] = 1000 μM added on 14th day, 7 more days
[25] = Ethrel 10^−3 M added at the 14th day, no acetylsalicylic acid, oxygen 20%
[26] = Ethrel 10^−3 M added at the 14th day, no acetylsalicylic acid, oxygen 20%, cell + medium
[27] = 1 M added on 14th day, 7 more days
[28] = 10^−1 M added on 14th day, 7 more days
[29] = 10^−2 M added on 14th day, 7 more days
[30] = 10^−4 M added on 14th day, 7 more days
[31] = 10^−5 M added on 14th day, 7 more days
[32] = 10^−6 M added on 14th day, 7 more days
[33] = 10^−7 M added on 14th day, 7 more days
[34] = 10^−8 M added on 14th day, 7 more days
[35] = 10^−9 M added on 14th day, 7 more days

Molecule: CCC=CCC1=C(C)CCC1=O [Comparative Example 24]
- cell yield ([1]; jasmone 0.1 μM): 12.2 g/L
- yield of baccatin III ([1]; jasmone 0.1 μM, cell + medium): 0.3 mg/L
- yield of cephalomannine ([1]; jasmone 0.1 μM, cell + medium): 1.2 mg/L
- yield of taxol ([1]; jasmone 0.1 μM, cell + medium): 3.0 mg/L
- cell yield ([1]; jasmone 1 μM): 12.1 g/L
- yield of baccatin III ([1]; jasmone 1 μM, cell + medium): 0.4 mg/L
- yield of cephalomannine ([1]; jasmone 1 μM, cell + medium): 1.0 mg/L
- yield of taxol ([1]; jasmone 1 μM, cell + medium): 3.2 mg/L
- cell yield ([1]; jasmone 10 μM): 11.3 g/L
- yield of baccatin III ([1]; jasmone 10 μM, cell + medium): 0.3 mg/L
- yield of cephalomannine ([1]; jasmone 10 μM, cell + medium): 0.8 mg/L
- yield of taxol ([1]; jasmone 10 μM, cell + medium): 3.3 mg/L
- cell yield ([1]; jasmone 100 μM): 11.3 g/L
- yield of baccatin III ([1]; jasmone 100 μM, cell + medium): 0.3 mg/L
- yield of cephalomannine ([1]; jasmone 100 μM, cell + medium): 0.6 mg/L
- yield of taxol ([1]; jasmone 100 μM, cell + medium): 3.2 mg/L
- cell yield ([1]; jasmone 1000 μM): 10.9 g/L
- yield of baccatin III ([1]; jasmone 1000 μM, cell + medium): 0.2 mg/L
- yield of cephalomannine ([1]; jasmone 1000 μM, cell + medium): 0.8 mg/L
- yield of taxol ([1]; jasmone 1000 μM, cell + medium): 2.5 mg/L

Molecule: CC/C=C\CC1=C(C)CCC1=O [jasmone, reference compound]
- taxol inducing activity [1]: low

Molecule: O=S(=O)([O-])OOS(=O)(=O)[O-].[K+].[K+] [Example 77]
- yield of cells, second stage of the culture [2, 4]: 12.1 g/L
- yield of taxol, second stage of the culture [2, 4]: 11.7 ppm
- yield of cells, second stage of the culture [2, 5]: 14.4 g/L
- yield of taxol, second stage of the culture [2, 5]: 16.3 ppm
- yield of cells, second stage of the culture [2, 6]: 13.0 g/L
- yield of taxol, second stage of the culture [2, 6]: 13.6 ppm
- yield of cells, second stage of the culture [2, 7]: 15.0 g/L
- yield of taxol, second stage of the culture [2, 7]: 20.4 ppm
- yield of cells, second stage of the culture [2, 8]: 15.6 g/L
- yield of taxol, second stage of the culture [2, 8]: 14.0 ppm
- content of taxol, first stage of the culture [2, 9]: 45 ppm
- yield of cells, first stage of the culture [2, 9]: 14.0 g/L
- content of taxol, first stage of the culture [2, 10]: 183 ppm
- yield of cells, first stage of the culture [2, 10]: 15.5 g/L
- content of taxol, first stage of the culture [2, 11]: 84 ppm
- yield of cells, first stage of the culture [2, 11]: 15.2 g/L
- content of taxol, first stage of the culture [2, 12]: 250 ppm
- yield of cells, first stage of the culture [2, 12]: 16.2 g/L
- content of taxol, first stage of the culture [2, 13]: 97 ppm
- yield of cells, first stage of the culture [2, 13]: 17.1 g/L

Molecule: O=[N+]([O-])[O-].[Ag+] [silver nitrate]
- growth rate [3, 14]: 2.8 times
- total yield of taxane [3, 14]: 23.21 mg/L
- yield of baccatin III [3, 14]: 3.01 mg/L
- yield of cephalomannine [3, 14]: 7.54 mg/L
- yield of taxol [3, 14]: 12.66 mg/L
- growth rate [3, 15]: 2.8 times
- total yield of taxane [3, 15]: 20.58 mg/L
- yield of baccatin III [3, 15]: 2.18 mg/L
- yield of cephalomannine [3, 15]: 6.49 mg/L
- yield of taxol [3, 15]: 11.91 mg/L

Molecule: methyl jasmone [reference compound]
- taxol inducing activity [1]: low

Molecule: CC/C=C\C[C@H]1C(=O)CC[C@@H]1CC(=O)O [jasmonic acid]
- cell yield [1, 16]: 12.2 g/L
- yield of baccatin III [1, 16]: 0.3 mg/L
- yield of cephalomannine [1, 16]: 0.6 mg/L
- yield of taxol [1, 16]: 2.2 mg/L
- cell yield [1, 17]: 12.2 g/L
- yield of baccatin III [1, 17]: 0.3 mg/L
- yield of cephalomannine [1, 17]: 0.6 mg/L
- yield of taxol [1, 17]: 3.4 mg/L
- cell yield [1, 18]: 11.6 g/L
- yield of baccatin III [1, 18]: 0.3 mg/L
- yield of cephalomannine [1, 18]: 0.8 mg/L
- yield of taxol [1, 18]: 5.9 mg/L
- cell yield [1, 19]: 11.5 g/L
- yield of baccatin III [1, 19]: 0.5 mg/L
- yield of cephalomannine [1, 19]: 2.6 mg/L
- yield of taxol [1, 19]: 8.3 mg/L
- cell yield [1, 20]: 11.4 g/L
- yield of baccatin III [1, 20]: 2.5 mg/L
- yield of cephalomannine [1, 20]: 2.2 mg/L
- yield of taxol [1, 20]: 10.2 mg/L
- cell yield [1, 21]: 10.3 g/L
- yield of baccatin III [1, 21]: 7.2 mg/L
- yield of cephalomannine [1, 21]: 3.0 mg/L
- yield of taxol [1, 21]: 12.8 mg/L
- cell yield [1, 22]: 10.1 g/L
- yield of baccatin III [1, 22]: 10.6 mg/L
- yield of cephalomannine [1, 22]: 2.7 mg/L
- yield of taxol [1, 22]: 14.7 mg/L
- cell yield [1, 23]: 10.2 g/L
- yield of baccatin III [1, 23]: 12.0 mg/L
- yield of cephalomannine [1, 23]: 1.1 mg/L
- yield of taxol [1, 23]: 11.1 mg/L
- cell yield [1, 24]: 6.7 g/L
- yield of baccatin III [1, 24]: 1.2 mg/L
- yield of cephalomannine [1, 24]: 0.5 mg/L
- yield of taxol [1, 24]: 1.2 mg/L

Molecule: O=P(O)(O)CCCl [Reference Example 2]
- growth rate [3, 25]: 2.7 times
- total yield of taxane [3, 25]: 0.30 mg/L
- yield of baccatin III [3, 26]: 0.05 mg/L
- yield of cephalomannine [3, 26]: 0.16 mg/L
- yield of taxol [3, 26]: 0.09 mg/L

Molecule: Cl.NOCC(=O)O [aminooxyacetic acid, aminoxyacetic acid hydrochloride]
- growth rate [3, 27]: 0.9 times
- total yield of taxane [3, 27]: 0 mg/L
- yield of baccatin III [3, 27]: 0 mg/L
- yield of cephalomannine [3, 27]: 0 mg/L
- yield of taxol [3, 27]: 0 mg/L
- growth rate [3, 28]: 1.2 times
- total yield of taxane [3, 28]: 1.03 mg/L
- yield of baccatin III [3, 28]: 0.33 mg/L
- yield of cephalomannine [3, 28]: 0.26 mg/L
- yield of taxol [3, 28]: 0.44 mg/L
- growth rate [3, 29]: 1.5 times
- total yield of taxane [3, 29]: 1.93 mg/L
- yield of baccatin III [3, 29]: 0.32 mg/L
- yield of cephalomannine [3, 29]: 0.71 mg/L
- yield of taxol [3, 29]: 0.90 mg/L
- growth rate [3, 15]: 1.5 times
- total yield of taxane [3, 15]: 3.43 mg/L
- yield of baccatin III [3, 15]: 1.11 mg/L
- yield of cephalomannine [3, 15]: 0.71 mg/L
- yield of taxol [3, 15]: 1.61 mg/L
- growth rate [3, 30]: 1.7 times
- total yield of taxane [3, 30]: 5.80 mg/L
- yield of baccatin III [3, 30]: 1.92 mg/L
- yield of cephalomannine [3, 30]: 1.22 mg/L
- yield of taxol [3, 30]: 2.66 mg/L
- growth rate [3, 31]: 1.7 times
- total yield of taxane [3, 31]: 3.81 mg/L
- yield of baccatin III [3, 31]: 1.30 mg/L
- yield of cephalomannine [3, 31]: 1.16 mg/L
- yield of taxol [3, 31]: 1.35 mg/L
- growth rate [3, 32]: 1.5 times
- total yield of taxane [3, 32]: 3.00 mg/L
- yield of baccatin III [3, 32]: 1.08 mg/L
- yield of cephalomannine [3, 32]: 0.73 mg/L
- yield of taxol [3, 32]: 1.19 mg/L
- growth rate [3, 33]: 1.7 times
- total yield of taxane [3, 33]: 2.33 mg/L
- yield of baccatin III [3, 33]: 0.66 mg/L
- yield of cephalomannine [3, 33]: 0.65 mg/L
- yield of taxol [3, 33]: 1.02 mg/L
- growth rate [3, 34]: 1.8 times
- total yield of taxane [3, 34]: 2.00 mg/L
- yield of baccatin III [3, 34]: 0.61 mg/L
- yield of cephalomannine [3, 34]: 0.62 mg/L
- yield of taxol [3, 34]: 0.77 mg/L
- growth rate [3, 35]: 2.3 times
- total yield of taxane [3, 35]: 1.38 mg/L
- yield of baccatin III [3, 35]: 0.21 mg/L
- yield of cephalomannine [3, 35]: 0.58 mg/L
- yield of taxol [3, 35]: 0.59 mg/L
